For 1 compound, Ki results are on record in BindingDB's records for doi:10.1007/bf00168685 (Centre De Pharmacologie-Endocrinologie (Montpellier, France), 1992).

The assay concerns the target T1, 5-hydroxytryptamine receptor 3A (Rattus norvegicus, UniProt P35563).
T1 sequence (P35563 whole entry): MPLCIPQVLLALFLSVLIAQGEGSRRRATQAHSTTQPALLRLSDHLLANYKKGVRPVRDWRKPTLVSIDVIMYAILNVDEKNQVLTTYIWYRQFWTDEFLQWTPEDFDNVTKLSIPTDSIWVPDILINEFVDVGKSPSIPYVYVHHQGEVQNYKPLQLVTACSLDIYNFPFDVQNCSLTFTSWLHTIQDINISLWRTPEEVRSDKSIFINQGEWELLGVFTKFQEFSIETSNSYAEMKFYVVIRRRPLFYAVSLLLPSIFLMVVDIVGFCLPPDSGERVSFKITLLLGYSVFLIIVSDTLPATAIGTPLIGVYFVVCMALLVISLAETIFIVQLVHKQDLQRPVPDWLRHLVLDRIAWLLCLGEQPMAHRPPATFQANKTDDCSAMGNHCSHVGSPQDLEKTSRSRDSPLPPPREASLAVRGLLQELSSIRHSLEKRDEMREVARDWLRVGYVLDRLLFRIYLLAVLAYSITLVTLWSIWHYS

For `CN1C2CCC1CC(OC(=O)c1c[nH]c3ccccc13)C2` (stereo unspecified), the Ki was found to be 2.8 nM.

As a reminder, the Ki is the dissociation constant of the complex between target and ligand, obtained from inhibition or displacement.
